From patent US10259810B2, “N-sulfonylated pyrazolo[3,4-b]pyridin-6-carboxamides and method of use” (AbbVie S.à.r.l., priority 2015, dated 2019)

Assays:
ΔF508-CFTR [1] = biological target: T1, ΔF508-CFTR (Homo sapiens, UniProt P13569, DEL508-508); test: CFTR cell surface levels using HRP-tagged ΔF508-CFTR expressing CFBE cells, intrinsic corrector capacity; type: cell-based; design: % Activation: concentration or dose not given beside the values
T1 construct: host or cells: CFBE41o-, doxycycline-inducible
T1 sequence (P13569 with tags, fused parts or gaps DEL508-508): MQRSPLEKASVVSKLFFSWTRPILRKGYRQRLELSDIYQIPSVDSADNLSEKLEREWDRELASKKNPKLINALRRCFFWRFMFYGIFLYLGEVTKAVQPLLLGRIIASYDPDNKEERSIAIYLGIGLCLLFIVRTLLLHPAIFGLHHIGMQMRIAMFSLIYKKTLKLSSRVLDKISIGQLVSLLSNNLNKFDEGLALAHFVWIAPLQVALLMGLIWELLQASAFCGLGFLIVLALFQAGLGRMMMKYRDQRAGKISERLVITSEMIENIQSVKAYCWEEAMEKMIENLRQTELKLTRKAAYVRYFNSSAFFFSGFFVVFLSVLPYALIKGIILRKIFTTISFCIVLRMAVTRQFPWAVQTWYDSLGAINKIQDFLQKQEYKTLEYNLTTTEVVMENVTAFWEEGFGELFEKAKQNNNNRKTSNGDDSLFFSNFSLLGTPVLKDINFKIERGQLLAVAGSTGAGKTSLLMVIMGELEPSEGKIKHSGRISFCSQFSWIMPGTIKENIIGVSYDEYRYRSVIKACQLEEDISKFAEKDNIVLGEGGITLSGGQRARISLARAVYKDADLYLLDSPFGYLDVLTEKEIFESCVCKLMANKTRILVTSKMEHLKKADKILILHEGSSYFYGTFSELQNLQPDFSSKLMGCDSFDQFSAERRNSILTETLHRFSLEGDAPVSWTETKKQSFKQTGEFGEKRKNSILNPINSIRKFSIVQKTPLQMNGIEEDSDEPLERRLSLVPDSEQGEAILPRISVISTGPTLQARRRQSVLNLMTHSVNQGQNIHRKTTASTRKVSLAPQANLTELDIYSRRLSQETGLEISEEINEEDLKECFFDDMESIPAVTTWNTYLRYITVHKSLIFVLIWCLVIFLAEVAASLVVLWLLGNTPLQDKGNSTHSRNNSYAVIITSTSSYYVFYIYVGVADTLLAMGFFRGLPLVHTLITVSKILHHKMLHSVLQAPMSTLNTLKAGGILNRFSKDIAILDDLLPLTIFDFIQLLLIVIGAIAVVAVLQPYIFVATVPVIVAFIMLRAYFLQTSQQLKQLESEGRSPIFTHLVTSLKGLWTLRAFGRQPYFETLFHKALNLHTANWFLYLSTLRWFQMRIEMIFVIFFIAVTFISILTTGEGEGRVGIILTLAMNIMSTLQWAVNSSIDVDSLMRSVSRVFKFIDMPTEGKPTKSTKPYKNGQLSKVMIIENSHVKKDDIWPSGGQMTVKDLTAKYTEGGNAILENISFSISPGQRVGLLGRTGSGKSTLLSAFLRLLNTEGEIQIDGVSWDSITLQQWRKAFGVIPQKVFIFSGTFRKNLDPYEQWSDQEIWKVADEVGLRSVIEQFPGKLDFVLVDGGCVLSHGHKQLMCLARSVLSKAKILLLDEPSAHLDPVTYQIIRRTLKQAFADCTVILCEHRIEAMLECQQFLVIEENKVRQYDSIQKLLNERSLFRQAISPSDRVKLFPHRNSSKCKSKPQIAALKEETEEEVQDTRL
Summary of the method: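 Read-out: chemiluminescent HRP activity of ECL4-HRP-tagged ΔF508-CFTR at the cell surface, 15 min substrate in dark. Normalized as 100×(sample−DMSO)/(positive control−DMSO).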

ΔF508-CFTR [2] = biological target: T1, ΔF508-CFTR; test: CFTR cell surface levels using HRP-tagged ΔF508-CFTR expressing CFBE cells, in the presence of a co-corrector; type: cell-based
Summary of the method: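 Chemiluminescent read-out of surface HRP (15 min, dark) after PBS washes. Activity is normalized as 100×(sample−DMSO)/(3 μM co-corrector alone−DMSO).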

[3] = HRP-tagged ΔF508-CFTR expressing CFBE41o- cells, compound alone (intrinsic corrector capacity), 20 hours at 33° C.
[4] = HRP-tagged ΔF508-CFTR expressing CFBE41o- cells, compound alone (intrinsic corrector capacity), 20 hours at 33° C., read-out: EC50
[5] = HRP-tagged ΔF508-CFTR CFBE cells, in the presence of 3 μM co-corrector
[6] = HRP-tagged ΔF508-CFTR CFBE cells, in the presence of 3 μM co-corrector, read-out: EC50

Compound | % Activation (ΔF508-CFTR [1]; [3]) | EC50 (ΔF508-CFTR [1]; [4]) | % Activation (ΔF508-CFTR [2]; [5]) | EC50 (ΔF508-CFTR [2]; [6]) | EC50 (ΔF508-CFTR [1]) | EC50 (ΔF508-CFTR [2])
COC1CCCN(C2CCN(c3cc(C(=O)NS(C)(=O)=O)nc4c3c(C3CCC3)nn4-c3ccc(F)cc3)CC2)C1 (stereo not shown) [Compound 587, 3-cyclobutyl-1-(4-fluorophenyl)-N-(methanesulfonyl)-4-(3-methoxy[1,4'-bipiperidin]-1'-yl)-1H-pyrazolo[3,4-b]pyridine-6-carboxamide] | 277.1% | 235 nM | 504.6% | 398 nM | – | –
CCS(=O)(=O)NC(=O)c1cc(-c2ccc(N3CCOCC3)cc2)c2c(C)nn(-c3cccc(Cl)c3)c2n1 [Compound 66, 1-(3-chlorophenyl)-N-(ethanesulfonyl)-3-methyl-4-[4-(morpholin-4-yl)phenyl]-1H-pyrazolo[3,4-b]pyridine-6-carboxamide] | 142.65% | 1860 nM | 332.85% | 6670 nM | – | –
CS(=O)(=O)NC(=O)c1cc(C2CCN(CC3CCOCC3)CC2)c2c(C3CCC3)nn(-c3ccc(F)cc3)c2n1 [Compound 600, 3-cyclobutyl-1-(4-fluorophenyl)-N-(methanesulfonyl)-4-{1-[(oxan-4-yl)methyl]piperidin-4-yl}-1H-pyrazolo[3,4-b]pyridine-6-carboxamide] | 126.5% | 1210 nM | 326.1% | 1620 nM | – | –
O=C(NS(=O)(=O)N1CCCCC1)c1cc(N2CCC(N3CCOCC3)CC2)c2c(C3CCC3)nn(-c3ccc(F)cc3)c2n1 [Compound 568, 3-cyclobutyl-1-(4-fluorophenyl)-4-[4-(morpholin-4-yl)piperidin-1-yl]-N-(piperidine-1-sulfonyl)-1H-pyrazolo[3,4-b]pyridine-6-carboxamide] | 240.65% | 77.5 nM | 461% | 46.3 nM | – | –
CCS(=O)(=O)NC(=O)c1cc(-c2cnc(N(C)C)nc2)c2c(C3CN(C(=O)OC)C3)nn(C3CCCCC3)c2n1 [Compound 52, methyl 3-{1-cyclohexyl-4-[2-(dimethylamino)pyrimidin-5-yl]-6-[(ethanesulfonyl)carbamoyl]-1H-pyrazolo[3,4-b]pyridin-3-yl}azetidine-1-carboxylate] | 75.755% | 1150 nM | 257.85% | 992 nM | – | –
CN(C)S(=O)(=O)NC(=O)c1cc(OCC2CCN(C3CCCCC3)CC2)c2c(C3CCC3)nn(-c3ccc(F)cc3)c2n1 [Compound 618, 3-cyclobutyl-4-[(1-cyclohexylpiperidin-4-yl)methoxy]-N-(dimethylsulfamoyl)-1-(4-fluorophenyl)-1H-pyrazolo[3,4-b]pyridine-6-carboxamide] | 112.8% | 421 nM | 295.9% | 702 nM | – | –
COCC1CCN(c2cc(C(=O)NS(C)(=O)=O)nc3c2c(C(C)C)nn3C2CCCCC2)CC1 [Compound 218, 1-cyclohexyl-N-(methanesulfonyl)-4-[4-(methoxymethyl)piperidin-1-yl]-3-(propan-2-yl)-1H-pyrazolo[3,4-b]pyridine-6-carboxamide] | 268.37% | 390 nM | 476.9% | 239 nM | – | –
CN(C(=O)c1cc(N2CCC(N3CCOCC3)CC2)c2c(C3CCC3)nn(-c3ccccc3)c2n1)S(C)(=O)=O [Compound 656, 3-cyclobutyl-N-(methanesulfonyl)-N-methyl-4-[4-(morpholin-4-yl)piperidin-1-yl]-1-phenyl-1H-pyrazolo[3,4-b]pyridine-6-carboxamide] | 102.63% | – | 289.68% | – | – | –
CN(C)S(=O)(=O)NC(=O)c1cc(N2CCC(N3CC4CC3CO4)CC2)c2c(C3CCC3)nn(-c3ccc(F)cc3)c2n1 (stereo not shown) [Compound 532, 3-cyclobutyl-N-(dimethylsulfamoyl)-1-(4-fluorophenyl)-4-[4-(2-oxa-5-azabicyclo[2.2.1]heptan-5-yl)piperidin-1-yl]-1H-pyrazolo[3,4-b]pyridine-6-carboxamide] | 151.95% | 521 nM | 342.83% | 473 nM | – | –
Cc1nn(C2CCCCC2)c2nc(C(=O)NS(C)(=O)=O)cc(-c3ccc(N4CCOCC4)nc3)c12 [Compound 47, 1-cyclohexyl-N-(methanesulfonyl)-3-methyl-4-[6-(morpholin-4-yl)pyridin-3-yl]-1H-pyrazolo[3,4-b]pyridine-6-carboxamide] | 169.73% | 1860 nM | 408.77% | 1600 nM | – | –
COCCS(=O)(=O)NC(=O)c1cc(OCC2CCOCC2)c2c(C3CCC3)nn(-c3ccccc3)c2n1 [Compound 315, 3-cyclobutyl-N-(2-methoxyethanesulfonyl)-4-[(oxan-4-yl)methoxy]-1-phenyl-1H-pyrazolo[3,4-b]pyridine-6-carboxamide] | 154.87% | 218 nM | 315.5% | 102 nM | – | –
CN1CCN(S(=O)(=O)NC(=O)c2cc(N3CCC(CN4CCCC4)CC3)c3c(C4CCC4)nn(-c4ccccc4)c3n2)CC1 [Compound 460, 3-cyclobutyl-N-(4-methylpiperazine-1-sulfonyl)-1-phenyl-4-{4-[(pyrrolidin-1-yl)methyl]piperidin-1-yl}-1H-pyrazolo[3,4-b]pyridine-6-carboxamide] | 125.8% | 596 nM | 306.75% | 505 nM | – | –
CC(C)c1nn(-c2ccc(F)cc2)c2nc(C(=O)NS(C)(=O)=O)cc(-c3cnc(N(C)C4CCOCC4)nc3)c12 [Compound 134, 1-(4-fluorophenyl)-N-(methanesulfonyl)-4-{2-[methyl(oxan-4-yl)amino]pyrimidin-5-yl}-3-(propan-2-yl)-1H-pyrazolo[3,4-b]pyridine-6-carboxamide] | 229.87% | 465 nM | 435.8% | 237 nM | – | –
O=C(NS(=O)(=O)N1CCOCC1)c1cc(N2CCC(CN3CCCC3)CC2)c2c(C3CCC3)nn(-c3ccccc3)c2n1 [Compound 380, 3-cyclobutyl-N-(morpholine-4-sulfonyl)-1-phenyl-4-{4-[(pyrrolidin-1-yl)methyl]piperidin-1-yl}-1H-pyrazolo[3,4-b]pyridine-6-carboxamide] | 131.7% | – | 309.17% | – | 279 nM | 127 nM
COCCN(C)c1cc(C(=O)NS(C)(=O)=O)nc2c1c(C(C)C)nn2-c1cccc(C)c1 [Compound 170, N-(methanesulfonyl)-4-[(2-methoxyethyl)(methyl)amino]-1-(3-methylphenyl)-3-(propan-2-yl)-1H-pyrazolo[3,4-b]pyridine-6-carboxamide] | 213.5% | 975 nM | 425.6% | 722 nM | – | –
CN(C)S(=O)(=O)NC(=O)c1cc(-c2ccc(N3CCC(C#N)CC3)nc2)c2c(C3CCC3)nn(-c3ccccc3)c2n1 [Compound 539, 4-[6-(4-cyanopiperidin-1-yl)pyridin-3-yl]-3-cyclobutyl-N-(dimethylsulfamoyl)-1-phenyl-1H-pyrazolo[3,4-b]pyridine-6-carboxamide] | 234.5% | 71.7 nM | 429.3% | 38.6 nM | – | –
COCC1CCN(c2cc(C(=O)NS(=O)(=O)N3CCC(N4CCC[C@@H]4COC)CC3)nc3c2c(C2CCC2)nn3-c2ccccc2)CC1 [Compound 395, 3-cyclobutyl-4-[4-(methoxymethyl)piperidin-1-yl]-N-{4-[(2R)-2-(methoxymethyl)pyrrolidin-1-yl]piperidine-1-sulfonyl}-1-phenyl-1H-pyrazolo[3,4-b]pyridine-6-carboxamide] | 209.2% | 474 nM | 327.95% | 127 nM | – | –
CONS(=O)(=O)NC(=O)c1cc(N2CCC(N3CCOCC3)CC2)c2c(C3CCC3)nn(-c3ccc(F)cc3)c2n1 [Compound 592, 3-cyclobutyl-1-(4-fluorophenyl)-N-(methoxysulfamoyl)-4-[4-(morpholin-4-yl)piperidin-1-yl]-1H-pyrazolo[3,4-b]pyridine-6-carboxamide] | 300.8% | 183 nM | 518.55% | 56.8 nM | – | –
COC1(CN2CCS(=O)(=O)CC2)CCN(c2cc(C(=O)NS(C)(=O)=O)nc3c2c(C2CCC2)nn3-c2ccccc2)CC1 [Compound 255, 3-cyclobutyl-4-{4-[(1,1-dioxo-1λ^6,4-thiazinan-4-yl)methyl]-4-methoxypiperidin-1-yl}-N-(methanesulfonyl)-1-phenyl-1H-pyrazolo[3,4-b]pyridine-6-carboxamide] | 122.3% | 1880 nM | 365.8% | 3330 nM | – | –
CS(=O)(=O)NC(=O)c1cc(N2CCCC3(CC3)C2)c2c(C3CCC3)nn(-c3ccccc3)c2n1 [Compound 205, 4-(5-azaspiro[2.5]octan-5-yl)-3-cyclobutyl-N-(methanesulfonyl)-1-phenyl-1H-pyrazolo[3,4-b]pyridine-6-carboxamide] | 208.5% | 956 nM | 416.4% | 856 nM | – | –
COCCOCC1(F)CCCN(c2cc(C(=O)NS(C)(=O)=O)nc3c2c(C(C)C)nn3-c2ccc(F)cc2)C1 (stereo not shown) [Compound 346, 4-{3-fluoro-3-[(2-methoxyethoxy)methyl]piperidin-1-yl}-1-(4-fluorophenyl)-N-(methanesulfonyl)-3-(propan-2-yl)-1H-pyrazolo[3,4-b]pyridine-6-carboxamide] | 195.8% | 308 nM | 375.1% | 253 nM | – | –
